# Results published in PubChem BioAssay AID1996.
# Conditions: buffer; pH 7.4; 200.0 µM
row,solubility kinetic,SMILES
1,21.9 µg/mL,Cc1nc(NC(=O)COC(=O)c2ccc(CO)cc2)c(Cl)cc1Cl
2,> 58.9 µg/mL,O=C(COC(=O)[C@H](Cc1ccccc1)NC(=O)c1ccco1)Nc1ccccc1
3,> 50.2 µg/mL,CCOc1ccc(S(=O)(=O)NCc2cccnc2)cc1C(C)C
4,> 55.6 µg/mL,Cc1nnc(SCC(=O)Nc2ccc(S(N)(=O)=O)cc2)n(N)c1=O
5,33.7 µg/mL,Fc1cccc(CNC2CCN(CCc3ccccc3)CC2)c1
6,6.4 µg/mL,CCN(CC)S(=O)(=O)c1ccc2oc(Nc3ccccc3)nc2c1
7,> 44.5 µg/mL,CCc1ccc(S(=O)(=O)NCc2csc(C)n2)cc1
8,> 46.1 µg/mL,Cn1c(-c2ccccc2)c[n+]2c1CCCCC2.[Br-]
9,29.2 µg/mL,NC(=O)C1CCCN(Cc2ccc3ccccc3c2)C1 (stereo not given)
10,> 57.4 µg/mL,COc1ccccc1N1CC(C(=O)NCC2COc3ccccc3O2)CC1=O (stereo not given)
11,> 43.4 µg/mL,CN(C1CCS(=O)(=O)C1)S(=O)(=O)c1ccccc1 (stereo not given)
12,19.3 µg/mL,Oc1c(C=Nc2cccc3nsnc23)ccc2ccccc12
13,26.9 µg/mL,Cc1ccc(NC(=O)C2=C(C(=O)O)CCCC2)cc1F
14,32.9 µg/mL,Cc1ccc(C(=O)N=c2sccn2C)o1
15,> 45.4 µg/mL,CCS(=O)(=O)N1CCN=C1SCc1cccc(F)c1
16,> 48.4 µg/mL,COc1ccc(C)cc1S(=O)(=O)NNc1nc(C)cc(C)n1
17,> 52.1 µg/mL,CC(C)Oc1ccc(N2CC(C(=O)NC3=NCCS3)CC2=O)cc1 (stereo not given)
18,6.1 µg/mL,COc1ccc(CN(C)C(C)C(=O)Nc2ccc(S(=O)(=O)N3CCCCC3)cc2)c(OC)c1 (stereo not given)
19,65.8 µg/mL,O=C(CN1C(=O)NC2(CCCC2)C1=O)Nc1cc(S(=O)(=O)N2CCCCC2)ccc1Cl
20,4.3 µg/mL,Cc1cc2oc(=O)cc(CN3CCOCC3)c2cc1Cl
21,31.2 µg/mL,CCN(CC)CCNC(=O)c1cc2ccccc2nc1Cl
22,< 0.7 µg/mL,CCOc1ccc2cc(S(=O)(=O)N3CCCCC3)ccc2c1
23,15.1 µg/mL,CCOc1ccc(N/C(=N/c2nc(C)cc(C)n2)NC(C)=O)cc1

row,solubility kinetic,SMILES
1,1.7 µg/mL,O=C(CSc1ccccn1)Nc1ccc(Cl)c([N+](=O)[O-])c1
2,> 31.7 µg/mL,CCc1[nH]c(C(=O)O)c(C)c1C(=O)OC
3,1.2 µg/mL,CCc1cc2ccc(C)cc2nc1SCC(=O)NC1CCCC1
4,> 42.8 µg/mL,CC(NC(=O)c1ccccc1)C(=O)N/N=C/c1ccco1 (stereo not given)
5,> 42.6 µg/mL,O=C(C[n+]1ccc(/C=N/O)cc1)N1CCCCC1.[Cl-]
6,30.2 µg/mL,CC(Oc1ccc(Cl)cc1Cl)/C(N)=N/O (stereo not given)
7,> 38.7 µg/mL,O=C1c2cccc3c([N+](=O)[O-])ccc(c23)C(=O)N1O
8,40.1 µg/mL,COc1ccccc1OCCCN1C(=O)C(=O)c2cccc(C)c21
9,19.9 µg/mL,Cc1csc(NC(=O)C2CCCCC2)n1
10,34 µg/mL,CC(=O)Nc1cc[n+](C(C)C(=O)c2ccccc2)cc1.[Cl-] (stereo not given)
11,> 39 µg/mL,O=C(Cn1ccnc1[N+](=O)[O-])NCc1ccccc1
12,8.7 µg/mL,O=C(NCc1ccc2c(c1)CCO2)Nc1ccccc1
13,44.4 µg/mL,COc1cccc(NC(=O)N2C3CCCC2CC(NC(=O)C2CC2)C3)c1 (stereo not given)
14,> 48.2 µg/mL,Cc1c(C(=O)N2CCOCC2)sc(NC(=O)C(C)C)c1C#N
15,2.2 µg/mL,CSc1nc2ccc(NC(=O)COc3ccccc3F)cc2s1
16,27.7 µg/mL,CC(NC(=S)Nc1ccc(F)cc1)c1ccccc1 (stereo not given)
17,> 44.7 µg/mL,Cc1cc(=O)c(C(=O)O)nn1-c1ccccc1C(F)(F)F
18,> 42.8 µg/mL,Cc1cccc(OCC(=O)O/N=C(\N)c2ccncc2)c1
19,> 60.1 µg/mL,CCN(Cc1ccccc1)C(=O)COC(=O)[C@@H]1CCCN1C(=O)c1cccs1
20,2.2 µg/mL,Cc1[nH]c(=S)c(C#N)c(C)c1Cc1ccc(Cl)cc1Cl
21,4.2 µg/mL,O=C(/C=C/c1ccc2c(c1)OCO2)c1ccccn1
22,9.5 µg/mL,CC(C)NC(=O)COc1ccc(OCc2ccccc2)cc1
23,43.8 µg/mL,COc1ccc(-c2cc(C(=O)N3CCCC3)no2)cc1OC

row,solubility kinetic,SMILES
1,31.5 µg/mL,CNCc1ccccc1Sc1ccc(O)c(O)c1.O=C([O-])/C=C\C(=O)[O-]
2,5.3 µg/mL,CCCCNC(=O)c1ccc2c(c1)N(C)C(=O)c1ccccc1S2
3,24.2 µg/mL,O=C(COc1ccccc1[N+](=O)[O-])NCC1COc2ccccc2O1 (stereo not given)
4,> 40.1 µg/mL,CC[C@H](C)[C@H](NC(N)=O)C(=O)Nc1ccccc1F
5,> 51.9 µg/mL,CCCN1CCC(NC(=S)Nc2cccc(Cl)c2Cl)CC1
6,0.2 µg/mL,COc1ccc(CNc2ncnc3c2[nH]c2ccccc23)cc1
7,42.3 µg/mL,Nc1nc(-c2ccc3c(c2)CCCC3)c(CC(=O)O)s1
8,40.3 µg/mL,CCc1ccc(S(=O)(=O)n2c(C)nc3ccccc32)cc1
9,< 0.1 µg/mL,Cc1cccc(NC(=O)Nc2ccc([N+](=O)[O-])cc2)n1
10,> 48.5 µg/mL,CCOC(=O)CNC(=O)CSc1nccn1Cc1ccco1
11,34.5 µg/mL,CSc1cccc(NC(=S)Nc2ccc(F)cc2)c1
12,> 33.2 µg/mL,O=C(O)c1ccc(OCC(F)(F)F)nc1
13,7.3 µg/mL,O=C(CSc1cccc2cccnc12)Nc1ccccc1F
14,> 46.3 µg/mL,CCCCN(C)Cc1c(C)[nH]c2c(ccc3ccccc32)c1=O
15,4.8 µg/mL,O=C(NCc1cccnc1)C(=O)Nc1nc(-c2ccccc2)cs1
16,5.4 µg/mL,O=C(COC(=O)c1ccc(Cl)cc1)NCC1CCCCC1
17,< 0.3 µg/mL,CC(C)OC(=O)CSc1nc2c(cc1C#N)CCCCC2
18,> 49.4 µg/mL,COC(=O)c1ccc(S(=O)(=O)N2CCC(C(N)=O)CC2)n1C
19,> 34.2 µg/mL,Cc1cc(N(C)C)nc(Nc2ccccc2)n1
20,8.7 µg/mL,O=C(NC(=S)NCc1ccco1)c1ccccc1[N+](=O)[O-]
21,23.3 µg/mL,O=C(OCC(=O)N1CCc2ccccc21)c1nc(Cl)ccc1Cl
22,3.7 µg/mL,COC(=O)c1sc(NC(=O)c2ccco2)c(C#N)c1C
23,> 49.2 µg/mL,Cc1cc(S(=O)(=O)NCCCn2ccnc2)c(C)cc1Cl

row,solubility kinetic,SMILES
1,0.7 µg/mL,COc1cc(N2CCOCC2)ccc1C=C(C#N)C#N
2,> 50.5 µg/mL,CCCN1CNc2c(c(=O)[nH]c(=S)n2-c2ccccc2Cl)C1
3,36.4 µg/mL,Cn1cccc1CNC(=S)Nc1ccccc1Cl
4,3.2 µg/mL,Cc1ccc(NC(=O)Cc2c[nH]c3ccccc23)cc1
5,2.9 µg/mL,Cc1cc2nc(/N=C(\N)NC(=O)C(C)C)nc(C)c2cc1C
6,> 47.3 µg/mL,CN(Cc1ccccc1)C(=O)CN1C(=O)NC2(CCCC2)C1=O
7,33.6 µg/mL,CCOc1ccc(N=C2SCC(=O)N2CC)cc1
8,15.5 µg/mL,CCN(CC)C(=S)SCC(=O)Nc1ncc2c(n1)CCCC2=O
9,1.7 µg/mL,Cc1ccc2nc(SCC(=O)N3CCN(c4ccccc4)CC3)[nH]c2c1
10,> 30.6 µg/mL,NC(=O)c1ccccc1N1CCCCC1
11,21.6 µg/mL,Cc1ccc(C(=O)CN2C(=O)C(C)Oc3ccccc32)cc1 (stereo not given)
12,43.8 µg/mL,COc1ccc(Nc2nc(C)cc(C)c2C(N)=O)cc1OC
13,27.5 µg/mL,CC(C)(C)NC(=O)NC(=O)CN1CCc2ccccc21
14,39.6 µg/mL,COc1cc(C)c(S(=O)(=O)NCCCn2ccnc2)cc1C
15,17.7 µg/mL,O=C1c2cccc([N+](=O)[O-])c2C(=O)N1C1CCCCC1
16,4.8 µg/mL,Cc1ccc(C)c(NS(=O)(=O)c2ccc3[nH]c(=O)[nH]c3c2)c1
17,> 46.1 µg/mL,C=CCN=C1CC(C)(C)C(C(=O)OC)C(O)=C1C(=O)CCC (stereo not given)
18,> 42.2 µg/mL,CCNC(=O)COC(=O)CCC(=O)c1ccc(F)cc1
19,42.4 µg/mL,Cc1ccc(CN2CCN(C3CCC3)CC2CCO)cc1 (stereo not given)
20,> 49 µg/mL,O=C(CN1CCN(Cc2ccccc2)CC1)N/N=C/c1ccco1
21,37.3 µg/mL,COc1cc2c(cc1OC)C(c1ccccc1O)NCC2 (stereo not given)
22,37.6 µg/mL,CC12CCC(=O)N1C(C(=O)NCCc1ccccc1)CS2 (stereo not given)
23,3 µg/mL,CCC(=O)Nc1ccc(NC(=S)NC(=O)/C=C/c2ccco2)cc1

row,solubility kinetic,SMILES
1,> 48.8 µg/mL,Cc1ccc(/C(O)=C2\C(=O)C(=O)N(C)C2c2ccc(F)cc2)cc1 (stereo not given)
2,> 42.5 µg/mL,CCOc1ccc(CC(=O)N/N=C/c2cccnc2)cc1
3,3.2 µg/mL,O=C(COc1ccc(Cl)cc1)Nc1ncc([N+](=O)[O-])s1
4,36.9 µg/mL,CCCCC(=O)Nc1ccc(NC(=O)c2ccco2)cn1
5,31.8 µg/mL,O=C(CCCCN1CCCCC1)c1ccccc1
6,> 52.7 µg/mL,CN1CCN(c2cc3c(cc2F)c(=O)c(C(=O)O)cn3CCF)CC1
7,> 37.1 µg/mL,O=C(O)C(Cc1ccccc1)N1C(=O)CCC1=O (stereo not given)
8,0.8 µg/mL,CC(C)(C)c1cc(-c2ccccc2)no1
9,8 µg/mL,Cc1ccc(-c2csc(N=C(N)N)n2)c(C)c1
10,> 60 µg/mL,CC(=O)N1CCN(C(=O)c2ccc(Cl)c(S(=O)(=O)N3CCCC3)c2)CC1
11,16.5 µg/mL,C=CCC(C(=O)NC(C)c1ccccc1)C(=O)NC(C)c1ccccc1 (stereo not given)
12,> 48.9 µg/mL,CC(C)(C)OC(=O)N1CCN(C(=O)c2cccnc2Cl)CC1
13,> 48.1 µg/mL,O=C(CSc1nnc(-c2ccncc2)o1)Nc1nncs1
14,42.9 µg/mL,O=C(c1cc(=O)[nH]c2ccccc12)N1CCc2ccccc2C1
15,> 41.6 µg/mL,C=CCc1ccccc1OCC(O)CN1CCOCC1 (stereo not given)
16,> 61.1 µg/mL,CC(C)N(Cc1ccccc1)C(=O)CN1C(=O)NC2(CCOc3ccccc32)C1=O (stereo not given)
17,41.4 µg/mL,O=C(O)C(Cc1c[nH]c2ccccc12)N1C(=O)c2ccccc2C1=O (stereo not given)
18,3 µg/mL,O=C(/C=C/c1ccc([N+](=O)[O-])cc1)OCC(=O)c1ccc[nH]1
19,> 44.9 µg/mL,O=C1CN(C(=O)CSc2ccccn2)c2ccccc2N1
20,38.6 µg/mL,CC(=O)NCc1ccc(C(=O)COC(=O)COc2ccc(Cl)c(C)c2)s1
21,> 48.8 µg/mL,O=C(O)c1ccc(CN2C(=O)c3ccc(C(=O)O)cc3C2=O)cc1
22,49.5 µg/mL,O=C(CCCN1C(=O)c2ccccc2C1=O)NCCCn1ccnc1
23,3.6 µg/mL,Cc1cccc(C(=O)Nc2scc(-c3ccc(Br)cc3)c2C(=O)O)c1

row,SMILES,solubility kinetic
1,COc1ccc2ccccc2c1CNCCc1ccccc1.Cl,42 µg/mL
2,CC(Cc1ccccc1)NC(=O)Cc1ccc([N+](=O)[O-])cc1 (stereo not given),22.6 µg/mL
3,CN1CCN(c2nc(Cl)ncc2F)CC1,> 34.6 µg/mL
4,CN1CC(C(=O)c2ccc(Cl)cc2)C(c2ccc(N(C)C)cc2)C1 (stereo not given),47.1 µg/mL
5,CC1CCCCC1NC1CCN(C)CC1 (stereo not given),> 31.6 µg/mL
